{"source": "paper PMC11719724", "about": "“Antimicrobial Peptides from Porcine Blood Cruor Hydrolysates as a Promising Source of Antifungal Activity” (Foods, 2024)", "key": {"[1]": {"system": "Debaryomyces hansenii LL11042", "assay_type": "cell-based", "details": "48 h", "procedure": "(§1) A microtitration assay was conducted to determine the minimum inhibitory concentration (MIC) of the peptides against the collection of indicator microorganisms. The growth medium used for the isolated bacterial and fungal strains was TSB and PDB, respectively. In brief, 175 µL of the culture medium was added to the wells of column 1 (negative growth control) and 125 µL to the wells of columns 2–12. Subsequently, 125 µL of each peptide (stock concentration of 2.5 mM), positive control (stock concentration of 256 µg/mL for ampicillin in bacterial tests and 50 µg/mL for natamycin in fungal tests) and negative control (10% DMSO in H2O (v/v)) were added to the wells in column 3 and mixed by pipetting up and down 10 times. A total of 125 µL from column 3 was removed and transferred to column 4, where serial dilutions were performed until the final dilution reached column 12. The final volume was then discarded. […] Subsequently, 50 µL of the indicator strain suspension (at a concentration of 10^5 CFU/mL for yeasts and bacteria and 10^4 CFU/mL for molds) was introduced to all the wells, except for column 1. The culture medium used for culture suspension was identical to that employed in the agar well diffusion method. The microplate was incubated for 24 h at 37 °C for bacterial isolates and for 48 h at 25 °C for fungal isolates.\n(§2) The minimal bactericidal/fungicidal concentration (MBC/MFC) was calculated by transferring 10 µL of the wells where no growth could be detected to agar plates (TSA for bacterial isolates and Dichloran Rose Bengal Chloramphenicol Agar (DBRC)) (BD Difco Laboratories, Sparks, MD, USA). After incubation (24 h, 37 °C for bacteria and 48 h, 25 °C, for fungi), the peptide concentration with which no growth was observed, was considered to be the MBC/MFC. The MBC/MIC and MFC/MIC ratios were calculated in order to ascertain the effect of the peptides. A ratio of ≤4 is indicative of bactericidal/fungicidal efficacy, whereas a ratio of >4 indicates bacteriostatic/fungistatic activity."}, "Eurotium rubrum 3071.14a": {"system": "Eurotium rubrum 3071.14a", "assay_type": "cell-based", "details": "48 h", "procedure": "as §1, §2"}, "Mucor racemosus LMA-722": {"system": "Mucor racemosus LMA-722", "assay_type": "cell-based", "details": "48 h", "procedure": "as §1, §2"}, "[2]": {"system": "Paecilomyces spp. 5332-9a", "assay_type": "cell-based", "details": "48 h", "procedure": "as §1, §2"}, "[3]": {"system": "Penicillium chrysogenum LMA-212", "assay_type": "cell-based", "details": "48 h", "procedure": "as §1, §2"}, "[4]": {"system": "Rhodotorula mucilaginosa 27173", "assay_type": "cell-based", "details": "48 h", "procedure": "as §1, §2"}, "C. guilliermondii 27168": {"system": "C. guilliermondii 27168", "assay_type": "cell-based, Candida guilliermondii", "details": "48 h", "procedure": "(§3) A microtitration assay was conducted to determine the minimum inhibitory concentration (MIC) of the peptides against the collection of indicator microorganisms. The growth medium used for the isolated bacterial and fungal strains was TSB and PDB, respectively. In brief, 175 µL of the culture medium was added to the wells of column 1 (negative growth control) and 125 µL to the wells of columns 2–12. Subsequently, 125 µL of each peptide (stock concentration of 2.5 mM), positive control (stock concentration of 256 µg/mL for ampicillin in bacterial tests and 50 µg/mL for natamycin in fungal tests) and negative control (10% DMSO in H2O (v/v)) were added to the wells in column 3 and mixed by pipetting up and down 10 times. A total of 125 µL from column 3 was removed and transferred to column 4, where serial dilutions were performed until the final dilution reached column 12. The final volume was then discarded. […]\n(§4) The minimal bactericidal/fungicidal concentration (MBC/MFC) was calculated by transferring 10 µL of the wells where no growth could be detected to agar plates (TSA for bacterial isolates and Dichloran Rose Bengal Chloramphenicol Agar (DBRC)) (BD Difco Laboratories, Sparks, MD, USA). […] The MBC/MIC and MFC/MIC ratios were calculated in order to ascertain the effect of the peptides. […]"}, "A. versicolor LMA-370": {"system": "A. versicolor LMA-370", "assay_type": "cell-based, Aspergillus versicolor", "details": "48 h", "procedure": "as §1, §2"}, "P. commune 27163": {"system": "P. commune 27163", "assay_type": "cell-based, Penicillium commune", "details": "48 h", "procedure": "as §3, §4"}, "[5]": {"system": "Paecilomyces spp. 5332-9a", "assay_type": "cell-based", "details": "Figure 1 pictures C,D; peptides 2.5 mM, natamycin 50 µg/mL, 80 µL per well; 25 °C, 48 h", "procedure": "(§5) The sixteen peptides were initially tested using the agar well diffusion method against the indicator strains E. coli, L. ivanovii, R. mucilaginosa, and Paecilomyces spp., as previously described in [22]. To perform this procedure, 25 µL of the prepared culture suspension (adjusted to 10^6 CFU/mL for bacteria and yeasts and 10^5 CFU/mL for molds) was diluted in 25 mL of Tryptic Soy Broth (TSB) (for bacterial strains) or Potato Dextrose Broth (PDB) (for fungal strains) supplemented with 0.75% agar and poured into a Petri dish (90 mm diameter) until dried. The culture media of the suspension was prepared using TSB for bacterial cultures and peptone water (10% w/v) supplemented with 0.1% Tween 80 (w/w) for fungal cultures as it enhances spore dispersion. Subsequent to the drying process, wells were formed using a sterile 5 mL pipette. A volume of 80 µL of each peptide at a concentration of 2.5 mM was added to each well. Ampicillin (MilliporeSigma Canada Ltd., Oakville, ON, Canada), at a concentration of 256 µg/mL and natamycin (MilliporeSigma Canada Ltd., Oakville, ON, Canada) at 50 µg/mL, were used as positive controls for bacterial and fungal tests, respectively, as they are wide-spectrum antimicrobials. The solvent of the peptides was included as negative control in all experiments. […] Thereafter, inhibition halos were measured, and images were captured using a Biorad Chemidoc camera."}, "[6]": {"system": "Rhodotorula mucilaginosa 27173", "assay_type": "cell-based", "details": "Figure 1 pictures A,B; peptides 2.5 mM, natamycin 50 µg/mL, 80 µL per well; 25 °C, 48 h", "procedure": "as §5"}}, "note": "Where no end group is shown, it is not given here.", "data": [{"compound": "FQKVVAGVANALAHKYH [Pep5]", "values": [{"measurement": "MFC, Debaryomyces hansenii", "setting": "[1]", "result": "156 ± 0", "unit": "µM"}, {"measurement": "MIC, Debaryomyces hansenii", "setting": "[1]", "result": "156 ± 0", "unit": "µM"}, {"measurement": "MFC, Eurotium rubrum", "setting": "Eurotium rubrum 3071.14a", "result": "78 ± 0", "unit": "µM"}, {"measurement": "MIC, Eurotium rubrum", "setting": "Eurotium rubrum 3071.14a", "result": "39 ± 0", "unit": "µM"}, {"measurement": "MFC, Mucor racemosus", "setting": "Mucor racemosus LMA-722", "result": "312 ± 0", "unit": "µM"}, {"measurement": "MIC, Mucor racemosus", "setting": "Mucor racemosus LMA-722", "result": "312 ± 0", "unit": "µM"}, {"measurement": "MFC, Activity Against Paecilomyces spp.", "setting": "[2]", "result": "9 ± 0", "unit": "µM"}, {"measurement": "MIC, Activity Against Paecilomyces spp.", "setting": "[2]", "result": "9 ± 0", "unit": "µM"}, {"measurement": "MIC, Penicillium chrysogenum", "setting": "[3]", "result": "312 ± 0", "unit": "µM"}, {"measurement": "MFC, Activity Against R. mucilaginosa", "setting": "[4]", "result": "78 ± 0", "unit": "µM"}, {"measurement": "MIC, Activity Against R. mucilaginosa", "setting": "[4]", "result": "39 ± 0", "unit": "µM"}, {"measurement": "MFC, Candida guilliermondii", "setting": "C. guilliermondii 27168", "result": "625 ± 0", "unit": "µM"}, {"measurement": "MIC, Candida guilliermondii", "setting": "C. guilliermondii 27168", "result": "312 ± 0", "unit": "µM"}, {"measurement": "MFC, Aspergillus versicolor", "setting": "A. versicolor LMA-370", "result": "78 ± 0", "unit": "µM"}, {"measurement": "MIC, Aspergillus versicolor", "setting": "A. versicolor LMA-370", "result": "39 ± 0", "unit": "µM"}, {"measurement": "MFC, Penicillium commune", "setting": "P. commune 27163", "result": "312 ± 0", "unit": "µM"}, {"measurement": "MIC, Penicillium commune", "setting": "P. commune 27163", "result": "312 ± 0", "unit": "µM"}]}, {"compound": "LAHKYH [Pep15]", "values": [{"measurement": "MIC, Activity Against Paecilomyces spp.", "setting": "[2]", "result": "1250 ± 0", "unit": "µM"}, {"measurement": "MFC, Activity Against R. mucilaginosa", "setting": "[4]", "result": "1250 ± 0", "unit": "µM"}, {"measurement": "MIC, Activity Against R. mucilaginosa", "setting": "[4]", "result": "1250 ± 0", "unit": "µM"}]}, {"compound": "QKVVAGVANALAHKYH [Pep14]", "values": [{"measurement": "MFC, Activity Against Paecilomyces spp.", "setting": "[2]", "result": "78 ± 0", "unit": "µM"}, {"measurement": "MIC, Activity Against Paecilomyces spp.", "setting": "[2]", "result": "78 ± 0", "unit": "µM"}, {"measurement": "MFC, Activity Against R. mucilaginosa", "setting": "[4]", "result": "78 ± 0", "unit": "µM"}, {"measurement": "MIC, Activity Against R. mucilaginosa", "setting": "[4]", "result": "78 ± 0", "unit": "µM"}]}, {"compound": "C[C@@H]1C/C=C/C=C/C=C/C=C/[C@H](O[C@@H]2O[C@H](C)[C@@H](O)[C@H](N)[C@@H]2O)C[C@@H]2O[C@](O)(C[C@@H](O)C[C@H]3O[C@@H]3/C=C/C(=O)O1)C[C@H](O)[C@H]2C(=O)O", "note": "[Natamycin, natamycin]", "values": [{"measurement": "inhibition halo (qualitative)", "setting": "[5]", "result": "Clear inhibition halos"}, {"measurement": "inhibition halo (qualitative)", "setting": "[6]", "result": "Clear inhibition halos"}]}, {"compound": "NALAHKYH [Pep3]", "values": [{"measurement": "MFC, Activity Against Paecilomyces spp.", "setting": "[2]", "result": "1250 ± 0", "unit": "µM"}, {"measurement": "MIC, Activity Against Paecilomyces spp.", "setting": "[2]", "result": "625 ± 0", "unit": "µM"}, {"measurement": "MFC, Activity Against R. mucilaginosa", "setting": "[4]", "result": "625 ± 0", "unit": "µM"}, {"measurement": "MIC, Activity Against R. mucilaginosa", "setting": "[4]", "result": "625 ± 0", "unit": "µM"}]}, {"compound": "FRLLGNVIVVV [Pep4]", "values": [{"measurement": "MIC, Debaryomyces hansenii", "setting": "[1]", "result": "312 ± 0", "unit": "µM"}, {"measurement": "MIC, Eurotium rubrum", "setting": "Eurotium rubrum 3071.14a", "result": "312 ± 0", "unit": "µM"}, {"measurement": "MFC, Activity Against Paecilomyces spp.", "setting": "[2]", "result": "625 ± 0", "unit": "µM"}, {"measurement": "MIC, Activity Against Paecilomyces spp.", "setting": "[2]", "result": "625 ± 0", "unit": "µM"}, {"measurement": "MIC, Penicillium chrysogenum", "setting": "[3]", "result": "156 ± 0", "unit": "µM"}, {"measurement": "MIC, Activity Against R. mucilaginosa", "setting": "[4]", "result": 375, "unit": "µM"}, {"measurement": "MIC, Aspergillus versicolor", "setting": "A. versicolor LMA-370", "result": "312 ± 0", "unit": "µM"}]}]}
